ChEMBL document CHEMBL1201862, “PubChem BioAssay data set” (2004)
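Method: 48-hour compound exposure of cells in 96-well plates, five concentrations, linear interpolation of endpoints. GI50: concentration for 50% inhibition of growth.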 The source made the active and inactive calls. Cut-off read from the data, not from the text of the source: active = GI50 up to about 1.1 µM and inactive = higher.

Tests used:
Assay in all cases: NCI-60 cell line screen, 48 h
KM12 = tested on: KM12
NCI/ADR-RES = tested on: NCI/ADR-RES
HCC 2998 = tested on: HCC 2998
UACC-257 = tested on: UACC-257
HOP-92 = tested on: HOP-92
UO-31 = tested on: UO-31
SF-539 = tested on: SF-539
OVCAR-4 = tested on: OVCAR-4
SNB-75 = tested on: SNB-75
MCF7 = tested on: MCF7
NCI-H522 = tested on: NCI-H522
PC-3 = tested on: PC-3
M14 = tested on: M14
786-0 = tested on: 786-0
OVCAR-5 = tested on: OVCAR-5
MDA-MB-435 = tested on: MDA-MB-435
ACHN = tested on: ACHN
SK-MEL-28 = tested on: SK-MEL-28
MDA-N = tested on: MDA-N
BT-549 = tested on: BT-549

With `CN(C)CCNC(=O)c1cccc2c(NC(CCC(N)=O)C(=O)O)c3ccccc3nc12` (stereo not given) the GI50 (KM12) was 7.78 µM (inactive), the GI50 (NCI/ADR-RES) was 9.98 µM (inactive) and the GI50 (HCC 2998) was 12.5 µM (inactive). The GI50 (UACC-257) was 8.2 µM (inactive), the GI50 (HOP-92) was 14.5 µM (inactive) and the GI50 (UO-31) was 1.55 µM (inactive). For the same compound, the GI50 (SF-539) was 5.55 µM (inactive), the GI50 (OVCAR-4) was 16.1 µM (inactive) and the GI50 (SNB-75) was 13.4 µM (inactive). The GI50 (MCF7) was 4.55 µM (inactive), the GI50 (NCI-H522) was 5.75 µM (inactive) and the GI50 (PC-3) was 5.43 µM (inactive). The GI50 (M14) was 7.55 µM (inactive), the GI50 (786-0) was 9.84 µM (inactive) and the GI50 (OVCAR-5) was 9.51 µM (inactive). For the same compound, the GI50 (MDA-MB-435) was 6.14 µM (inactive), the GI50 (ACHN) was 3.37 µM (inactive) and the GI50 (SK-MEL-28) was 12.5 µM (inactive). For the same compound, the GI50 (MDA-N) was 8.73 µM (inactive) and the GI50 (BT-549) was 10.5 µM (inactive).

For `Cc1ccc([N+](=O)[O-])cc1S(=O)(=O)Nc1ccc(C2=NOC(c3cccs3)C2)cc1` (stereo not given), the GI50 (KM12) was 7.18 µM (inactive), the GI50 (NCI/ADR-RES) was 4.13 µM (inactive) and the GI50 (HCC 2998) was 9.25 µM (inactive). The GI50 (UACC-257) was 16.9 µM (inactive), the GI50 (HOP-92) was 19.9 µM (inactive) and the GI50 (UO-31) was 6.25 µM (inactive). For the same compound, the GI50 (SF-539) was 13.5 µM (inactive), the GI50 (OVCAR-4) was 9.42 µM (inactive) and the GI50 (SNB-75) was 16.1 µM (inactive). For the same compound, the GI50 (MCF7) was 5.73 µM (inactive), the GI50 (NCI-H522) was 3.2 µM (inactive) and the GI50 (PC-3) was 8.93 µM (inactive). The GI50 (M14) was 5.98 µM (inactive), the GI50 (786-0) was 17.5 µM (inactive) and the GI50 (OVCAR-5) was 32.3 µM (inactive). For the same compound, the GI50 (MDA-MB-435) was 2.53 µM (inactive), the GI50 (ACHN) was 14.8 µM (inactive) and the GI50 (SK-MEL-28) was 20.1 µM (inactive). The GI50 (MDA-N) was 2.74 µM (inactive) and the GI50 (BT-549) was 13.2 µM (inactive).

With `O=C1CSC(/C(=C\c2ccc(Cl)cc2)c2nc3ccccc3[nH]2)=N1` the GI50 (KM12) was 13.2 µM (inactive), the GI50 (NCI/ADR-RES) was 19.1 µM (inactive) and the GI50 (HCC 2998) was 3.43 µM (inactive). The GI50 (UACC-257) was 16.2 µM (inactive), the GI50 (HOP-92) was 12.4 µM (inactive) and the GI50 (UO-31) was 3.03 µM (inactive). The GI50 (SF-539) was 0.659 µM (active), the GI50 (OVCAR-4) was 16.1 µM (inactive) and the GI50 (SNB-75) was 12.3 µM (inactive). For the same compound, the GI50 (MCF7) was 14.6 µM (inactive), the GI50 (NCI-H522) was 5.3 µM (inactive) and the GI50 (PC-3) was 19.5 µM (inactive). For the same compound, the GI50 (M14) was 22.6 µM (inactive), the GI50 (786-0) was 13.6 µM (inactive) and the GI50 (OVCAR-5) was 17 µM (inactive). The GI50 (MDA-MB-435) was 17.9 µM (inactive), the GI50 (ACHN) was 6.68 µM (inactive) and the GI50 (SK-MEL-28) was 15.7 µM (inactive). For the same compound, the GI50 (MDA-N) was 18.2 µM (inactive) and the GI50 (BT-549) was 19.2 µM (inactive).

With `CCOC(=O)Nc1cc2c(c(N)n1)N=C(c1ccc3ccccc3c1)CN2` the GI50 (KM12) was 0.0715 µM (active), the GI50 (NCI/ADR-RES) was 0.0335 µM (active) and the GI50 (HCC 2998) was 0.215 µM (active). The GI50 (UACC-257) was 0.815 µM (active), the GI50 (HOP-92) was 0.275 µM (active) and the GI50 (UO-31) was 0.301 µM (active). The GI50 (SF-539) was 0.08 µM (active), the GI50 (OVCAR-4) was 1.44 µM (inactive) and the GI50 (SNB-75) was 0.111 µM (active). For the same compound, the GI50 (MCF7) was 0.192 µM (active), the GI50 (NCI-H522) was 0.0769 µM (active) and the GI50 (PC-3) was 0.0407 µM (active). The GI50 (M14) was 0.617 µM (active), the GI50 (786-0) was 0.0809 µM (active) and the GI50 (OVCAR-5) was 10.5 µM (inactive). The GI50 (MDA-MB-435) was < 0.01 µM (active), the GI50 (ACHN) was 0.258 µM (active) and the GI50 (SK-MEL-28) was 1.95 µM (inactive). The GI50 (MDA-N) was < 0.01 µM (active) and the GI50 (BT-549) was 1.75 µM (inactive).

With `O=C(NNCC(F)(F)F)c1ccncc1` the GI50 (KM12) was > 100 µM (inactive), the GI50 (NCI/ADR-RES) was > 100 µM (inactive) and the GI50 (HCC 2998) was > 100 µM (inactive). For the same compound, the GI50 (UACC-257) was > 100 µM (inactive), the GI50 (HOP-92) was > 100 µM (inactive) and the GI50 (UO-31) was > 100 µM (inactive). The GI50 (SF-539) was > 100 µM (inactive), the GI50 (OVCAR-4) was > 100 µM (inactive) and the GI50 (SNB-75) was > 100 µM (inactive). For the same compound, the GI50 (MCF7) was > 100 µM (inactive), the GI50 (NCI-H522) was > 100 µM (inactive) and the GI50 (PC-3) was > 100 µM (inactive). For the same compound, the GI50 (M14) was > 100 µM (inactive), the GI50 (786-0) was > 100 µM (inactive) and the GI50 (OVCAR-5) was > 100 µM (inactive). The GI50 (MDA-MB-435) was > 100 µM (inactive), the GI50 (ACHN) was > 100 µM (inactive) and the GI50 (SK-MEL-28) was > 100 µM (inactive). For the same compound, the GI50 (MDA-N) was > 100 µM (inactive) and the GI50 (BT-549) was > 100 µM (inactive).

`Cc1c(/N=N/c2ccc([N+](=O)[O-])cc2)nc2scc(-c3ccccc3)n12` was tested, and the GI50 (KM12) was 53.5 µM (inactive), the GI50 (NCI/ADR-RES) was 73.1 µM (inactive) and the GI50 (HCC 2998) was > 100 µM (inactive). The GI50 (UACC-257) was > 100 µM (inactive), the GI50 (HOP-92) was > 100 µM (inactive) and the GI50 (UO-31) was 58.7 µM (inactive). The GI50 (SF-539) was 82.6 µM (inactive), the GI50 (OVCAR-4) was > 100 µM (inactive) and the GI50 (SNB-75) was 44.5 µM (inactive). The GI50 (MCF7) was 49.4 µM (inactive), the GI50 (NCI-H522) was 46.5 µM (inactive) and the GI50 (PC-3) was 68.5 µM (inactive). The GI50 (M14) was > 100 µM (inactive), the GI50 (786-0) was > 100 µM (inactive) and the GI50 (OVCAR-5) was > 66.7 µM (inactive). The GI50 (MDA-MB-435) was > 100 µM (inactive), the GI50 (ACHN) was 63.4 µM (inactive) and the GI50 (SK-MEL-28) was > 100 µM (inactive). For the same compound, the GI50 (MDA-N) was > 100 µM (inactive) and the GI50 (BT-549) was > 78.7 µM (inactive).

With `N/N=C(\C(=O)Nc1ccc(Cl)cc1Cl)C(c1cnc2ccccc2n1)[N+](=O)[O-]` (stereo not given) the GI50 (KM12) was > 100 µM (inactive), the GI50 (NCI/ADR-RES) was > 100 µM (inactive) and the GI50 (HCC 2998) was > 100 µM (inactive). For the same compound, the GI50 (UACC-257) was > 100 µM (inactive), the GI50 (HOP-92) was > 100 µM (inactive) and the GI50 (UO-31) was 44.2 µM (inactive). The GI50 (SF-539) was > 100 µM (inactive), the GI50 (OVCAR-4) was > 100 µM (inactive) and the GI50 (SNB-75) was > 100 µM (inactive). For the same compound, the GI50 (MCF7) was > 100 µM (inactive), the GI50 (NCI-H522) was > 100 µM (inactive) and the GI50 (PC-3) was > 100 µM (inactive). For the same compound, the GI50 (M14) was > 100 µM (inactive), the GI50 (786-0) was > 100 µM (inactive) and the GI50 (OVCAR-5) was > 100 µM (inactive). For the same compound, the GI50 (MDA-MB-435) was > 100 µM (inactive), the GI50 (ACHN) was 71.1 µM (inactive) and the GI50 (SK-MEL-28) was > 100 µM (inactive). The GI50 (MDA-N) was > 100 µM (inactive) and the GI50 (BT-549) was > 100 µM (inactive).
